Laboratory results published in patent US11608320B2, “Oxazolidinone hydroxamic acid derivatives” (KUWAIT UNIVERSITY, priority 2020, dated 2023).

What was measured:
[1] = tested on: LTC4 release from IgE/antigen-activated mouse mast cells (BMMC); assay: Inhibition of LTC4 release in allergen/IgE-activated bone marrow-derived mouse mast cells; assay type: cell-based; conditions: BMMC, anti-DNP IgE sensitized, DNP-BSA 30 ng/ml, 30 min
Text: (§1) Inhibition of LTC4 release and degranulation in allergen/IgE-activated bone marrow-derived mouse mast cells (BMMC): Bone marrow-derived mast cells (BMMC) were generated from pathogen-free 5-7 week old male Balb/c mice according to the method of Davis et al., [2004] (Davis, B. J., et al., (2004), Journal of Immunology, 173: 6914-6920). Essentially, bone marrow cells were obtained by flushing of the femoral bone marrow and cultured in RPMI 1640 medium supplemented with 10% FBS, 100 U/ml penicillin, and 100 μg/ml streptomycin, 25 mM HEPES, 1.0 mM sodium pyruvate, 0.1 mM nonessential amino acids, 0.0035% 2-mercaptoethanol, and 30 ng/ml mouse recombinant IL-3, with culture medium replaced every two days. Cells were used after 4-8 weeks of culture, by which time at least 97% of the cells would have differentiated into mast cells.
(§2) The generated BMMCs were seeded at 5×10^4 cells/well in a 96-well flat-bottom culture plate and passively sensitized overnight with 0.5 μg/ml anti-DNP monoclonal IgE antibody (clone SPE-7, Sigma-Aldrich, St. Louis, Mo., USA). The cells were then washed twice to remove any unbound antibody and subsequently re-suspended in reaction buffer (135 mM NaCl, 5 mM KCl, 1.8 mM CaCl2), 1 mM MgCl2, 5.6 mM glucose, 0.05% BSA and 20 mM HEPES, pH 7.4). They were then pre-incubated with the test compounds (0.01-30 μM) or the solvent (0.05% DMSO) for 15 min before being stimulated with the specific antigen, DNP-BSA (30 ng/ml). After 30 min incubation at 37° C., the amount of LTC4 released into the supernatant (as index of 5-LO activity) was determined by ELISA as described below.
Assay of released leukotrienes/β-hexoseaminidase enzyme: Appropriately diluted supernatants were assayed for the released LTs (LTB4 and LTC4), by the enzyme immunoassay (EIA) method using assay kits supplied by R&D Systems (Minneapolis, Minn., USA) and following the manufacturer's instructions.

[2] = tested on: degranulation of bone marrow-derived mouse mast cells; assay: Inhibition of degranulation (β-hexoseaminidase release) in allergen/IgE-activated BMMC; assay type: cell-based; conditions: anti-DNP IgE sensitized, DNP-BSA 30 ng/ml, 30 min
Text: as §1
as §2, with “They were then pre-incubated with the test compounds (0.01-30 μM) or the solvent (0.05% DMSO) for 15 min before being stimulated with the specific antigen, DNP-BSA (30 ng/ml).” left out
The concurrently-released granular enzyme, β-hexoseaminidase (as index of degranulation) was determined as described below.
The beta-hexoseaminidase released into the supernatant by the degranulating BMMCs was determined colorimetrically using p-nitrophenyl-N-acetyl-β-D-glucosaminide as substrate. […] The absorbance of the colored product (p-nitrophenol) was then read at 405 nm in a microplate reader. Results were expressed as percentage of the total cell content (determined in cells lysed with 0.1% triton-x-100).

SMILES: CCCCCCCC(=O)N(O)C[C@H]1CN(c2ccc(N3CCOCC3)c(F)c2)C(=O)O1 [PH-251, (R)—N-((3-(3-fluoro-4-morpholinophenyl)-2-oxooxazolidin-5-yl)methyl)-N-hydroxyoctanamide]
- Inhibition of generation of LTC4 from IgE/allergen-activated mast cells (FIG. 2A) [1]: equally effective in inhibiting the generation of LTC4
- Inhibition of degranulation (release of granular β-hexoseaminidase) (FIG. 2B) [2]: able to inhibit degranulation
